Results published in ChEMBL document CHEMBL1140470, “Synthesis and in vitro evaluation of a selective antagonist and the corresponding radioligand for the prostaglandin D2 receptor CRTH2” (Bioorg Med Chem Lett, 2007).

Key:
[1] = target: T1, Prostaglandin D2 receptor 2 (Homo sapiens, UniProt Q9Y5Y4); experiment: Displacement of [3H]PGD2 from human CRTH2 receptor
T1 sequence (Q9Y5Y4 whole entry): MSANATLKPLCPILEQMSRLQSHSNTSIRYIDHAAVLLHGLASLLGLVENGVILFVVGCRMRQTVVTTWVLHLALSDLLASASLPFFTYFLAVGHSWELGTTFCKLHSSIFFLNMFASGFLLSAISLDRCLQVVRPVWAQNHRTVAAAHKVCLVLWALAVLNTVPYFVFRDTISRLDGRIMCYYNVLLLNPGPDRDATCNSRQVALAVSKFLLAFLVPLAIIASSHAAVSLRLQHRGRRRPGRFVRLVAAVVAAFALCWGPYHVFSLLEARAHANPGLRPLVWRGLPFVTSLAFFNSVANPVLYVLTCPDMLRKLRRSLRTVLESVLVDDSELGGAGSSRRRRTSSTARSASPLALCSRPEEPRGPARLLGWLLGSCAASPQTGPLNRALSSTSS

CRTH2 (Homo sapiens) = experiment: Selectivity for CRTH2 over DP and TP receptors
[2] = target: T2, Prostaglandin D2 receptor 2 (Homo sapiens) (UniProt Q9Y5Y4); experiment: (§1) Displacement of [3H]TRQ11238 from human CRTH2 receptor expressed in HEK293 cells; format: cell-based; conditions: tested as the 3H-labelled form
T2 sequence (whole entry): T1 sequence (Q9Y5Y4 whole entry)

[3] = target: T1, Prostaglandin D2 receptor 2; experiment: Antagonist activity at human CRTH2 receptor assessed as inhibition of PGD2-induced signaling by inositol-phosphate assay; format: functional
[4] = target: T1, Prostaglandin D2 receptor 2; experiment: as §1; format: cell-based

Row | Compound | Ki [1] [nM] | Selectivity ratio (CRTH2 (Homo sapiens)) | Bmax [2] [fmol/mg] | IC50 [3] [nM] | Kd [4] [nM]
1 | O=C(O)Cn1cc(CCN(Cc2ccccc2)S(=O)(=O)c2ccc(F)cc2)c2ccccc21 | 0.631 | > 1000 | 2790 | 3.98 | 
2 | [3H]c1cc([3H])cc(CN(CCc2cn(CC(=O)O)c3ccccc23)S(=O)(=O)c2ccc(F)cc2)c1 |  |  |  |  | 1
